Results on two compounds are retold here after ChEMBL document CHEMBL1151149, “Antineoplastic agents, 107. Isolation of acteoside and isoacteoside from Castilleja linariaefolia” (1990).

The test system of this test is P388. In words: Cytotoxicity against mouse P388 cells. In kind it is functional. To be noted: read-out: ED50 (the source's name).

Structures are written as SMILES. Converted amounts (≈) assume the structure as drawn.

For `C[C@@H]1O[C@@H](O[C@@H]2[C@@H](O)[C@H](OCCc3ccc(O)c(O)c3)O[C@H](CO)[C@H]2OC(=O)/C=C/c2ccc(O)c(O)c2)[C@H](O)[C@H](O)[C@H]1O` [ACETOSIDE], the EC50 is 2.6 µg/mL (≈ 4.16 µM).
Consider `C[C@@H]1O[C@@H](O[C@@H]2[C@@H](O)[C@H](OCCc3ccc(O)c(O)c3)O[C@H](COC(=O)/C=C/c3ccc(O)c(O)c3)[C@H]2O)[C@H](O)[C@H](O)[C@H]1O` [ISOACTEOSIDE], for which the EC50 was 10 µg/mL (≈ 16 µM).
